According to patent publication US20260101893A1, “FUNGICIDAL COMPOSITIONS” (SYNGENTA CROP PROTECTION AG, priority 2022, published 2026):

Key:
Type in all cases: cell-based
[1] = system: Zymoseptoria tritici (Septoria tritici); assay: Fungicidal activity against Zymoseptoria tritici (Septoria tritici) (leaf blotch), liquid culture in PDB, 96-well microtiter plate
Experimental: (§1) Fungicidal activity against Zymoseptoria tritici (Septoria tritici) (leaf blotch) Conidia of the fungus from cryogenic storage were directly mixed into nutrient broth (PDB potato dextrose broth). A DMSO solution of the test compounds was placed into a microtiter plate (96-well format) and the nutrient broth containing the fungal spores was added to it. The test plates were incubated at 24° C. and after 72 hours the fungal growth was assessed visually and compared to the growth in untreated wells. The scores were recorded as % control compared to the untreated wells. The action to be expected E for a given active ingredient combination was calculated using the COLBY formula as follows: • ppm=milligrams of active ingredient (=a.i.) per liter of spray mixture • X=% action by active ingredient (A) using p ppm of active ingredient • Y=% action by active ingredients (B+C) using q ppm of active ingredient. According to COLBY, the expected (additive) action of active ingredients (A)+(B+C) using p+q ppm of active ingredient is: [formula]

[2] = system: Glomerella lagenarium (Colletotrichum lagenarium); assay: Fungicidal activity against Glomerella lagenarium (Colletotrichum lagenarium) liquid culture/cucumber/preventative (Anthracnose)
Experimental: as §1, with “Glomerella lagenarium (Colletotrichum lagenarium) liquid culture/cucumber/preventative (Anthracnose)” for “Zymoseptoria tritici (Septoria tritici) (leaf blotch)”

[3] = system: Mycosphaerella arachidis Syn. Cercospora arachidicola; assay: Fungicidal activity against Mycosphaerella arachidis syn. Cercospora arachidicola (brown leaf spot), liquid culture in PDB, 96-well microtiter plate
Experimental: as §1, with “Activity Against Mycosphaerella arachidis Syn. Cercospora arachidicola (Brown Leaf Spot)” for “activity against Zymoseptoria tritici (Septoria tritici) (leaf blotch)”, “5 days” for “72 hours”

CO/C=C(\Oc1cc(C2CCCCC2)ccc1C)C(=O)OC [Compound X.04, methyl (Z)-2-(5-cyclohexyl-2-methyl-phenoxy)-3-methoxy-prop-2-enoate]
% control Score ([1]; X.04 0.02 ppm): 0% | % control Score ([1]; X.04 0.02 ppm alone): 0% | % control Score ([1]; X.04 0.02 ppm, Table B2): 0% | % control Score ([1]; X.04 0.07 ppm): 0% | % control Score ([1]; X.04 0.07 ppm alone): 0% | % control Score ([1]; X.04 0.07 ppm, Table B2): 0% | % control Score ([1]; X.04 0.2 ppm): 0% | % control Score ([1]; X.04 0.2 ppm alone): 0% | % control Score ([1]; X.04 0.2 ppm, Table B2): 0% | Zymoseptoria tritici % control Score ([1]; ppm: X.04 0.02): 0% | Zymoseptoria tritici % control Score ([1]; ppm: X.04 0.07): 0% | Zymoseptoria tritici % control Score ([1]; ppm: X.04 0.2): 0% | % control Score ([2]; X.04 0.02 ppm): 0% | % control Score ([2]; X.04 0.02 ppm alone): 0% | % control Score ([2]; X.04 0.02 ppm, Table B2): 0% | % control Score ([2]; X.04 0.07 ppm): 70% | % control Score ([2]; X.04 0.07 ppm alone): 70% | % control Score ([2]; X.04 0.07 ppm, Table B2): 70% | % control Score ([2]; X.04 0.2 ppm): 100% | % control Score ([2]; X.04 0.2 ppm alone): 100% | % control Score ([2]; X.04 0.2 ppm, Table B2): 100% | Colletotrichum lagenarium % control Score ([2]; ppm: X.04 0.02): 0% | Colletotrichum lagenarium % control Score ([2]; ppm: X.04 0.07): 70% | Colletotrichum lagenarium % control Score ([2]; ppm: X.04 0.2): 100% | % control Score ([3]; X.04 0.02 ppm): 70% | % control Score ([3]; X.04 0.02 ppm alone): 70% | % control Score ([3]; X.04 0.02 ppm, Table B2): 70% | % control Score ([3]; X.04 0.07 ppm): 70% | % control Score ([3]; X.04 0.07 ppm alone): 90% | % control Score ([3]; X.04 0.07 ppm, Table B2): 90% | % control Score ([3]; X.04 0.2 ppm): 70% | % control Score ([3]; X.04 0.2 ppm alone): 90% | % control Score ([3]; X.04 0.2 ppm, Table B2): 90% | Mycosphaerella arachidis % control Score ([3]; ppm: X.04 0.02): 70% | Mycosphaerella arachidis % control Score ([3]; ppm: X.04 0.07): 90% | Mycosphaerella arachidis % control Score ([3]; ppm: X.04 0.2): 90%
